Assay results: BindingDB's records for doi:10.1016/j.bmcl.2021.128058 (Hibercell, 2021)

Assay: Inhibition of eIF2alpha (unknown origin) assessed as eIF2alpha phosphorylation by TR-FRET assay

Structure (SMILES)	IC50 [nM]
Cc1cc(NC(=O)[C@H](O)c2cc(F)cc(F)c2)ccc1-c1cnc(N)c(C(=O)NC(C)C)c1	33
Cc1cc(NC(=O)[C@@H](O)c2cc(F)cc(F)c2)ccc1-c1cnc(N)c(C(=O)NC(C)C)c1	187
Cc1cc(NC(=O)[C@H](O)c2ccccc2)ccc1-c1cnc(N)c(C(=O)NC(C)C)c1	198
Cc1cc(NC(=O)Cc2ccccc2)ccc1-c1cnc(N)c(C(=O)NC(C)C)c1	307
Cc1cc(NC(=O)Oc2ccccc2)ccc1-c1cnc(N)c(C(=O)NC(C)C)c1	> 10000
Cc1cc(NC(=O)Nc2ccccc2)ccc1-c1cnc(N)c(C(=O)NC(C)C)c1	2360
CO[C@@H](C(=O)Nc1ccc(-c2cnc(N)c(C(=O)NC(C)C)c2)c(C)c1)c1ccccc1	3340
Cc1cc(NC(=O)[C@](C)(O)c2ccccc2)ccc1-c1cnc(N)c(C(=O)NC(C)C)c1	2130
Cc1cc(NC(=O)[C@@](C)(O)c2ccccc2)ccc1-c1cnc(N)c(C(=O)NC(C)C)c1	3020
Cc1cc(NC(=O)[C@H](O)c2cc(F)cc(F)c2)ccc1-c1cnc(N)c(C(=O)OC(C)C)c1	49
CNC(=O)c1cc(-c2ccc(NC(=O)[C@H](O)c3cc(F)cc(F)c3)cc2C)cnc1N	58
Cc1cc(NC(=O)[C@H](O)c2cc(F)cc(F)c2)ccc1-c1cnc(N)c(C(=O)N(C)C)c1	2220
CCNC(=O)c1cc(-c2ccc(NC(=O)[C@H](O)c3cc(F)cc(F)c3)cc2C)cnc1N	45
Cc1cc(NC(=O)[C@H](O)c2cc(F)cc(F)c2)ccc1-c1cnc(N)c(C(=O)NC2CC2)c1	27
Cc1cc(NC(=O)[C@H](O)c2cc(F)cc(F)c2)ccc1-c1cnc(N)c(C(=O)NC(C)(C)C)c1	114
Cc1cc(NC(=O)[C@H](O)c2cccc(Cl)c2)ccc1-c1cnc(N)c(C(=O)NC(C)C)c1	40
Cc1cccc([C@@H](O)C(=O)Nc2ccc(-c3cnc(N)c(C(=O)NC(C)C)c3)c(C)c2)c1	54
CCc1cccc([C@@H](O)C(=O)Nc2ccc(-c3cnc(N)c(C(=O)NC(C)C)c3)c(C)c2)c1	18
CC(C)NC(=O)c1cc(-c2ccc(NC(=O)[C@H](O)c3cc(F)cc(F)c3)cc2)cnc1N	313
CC(C)NC(=O)c1cc(-c2ccc(NC(=O)[C@H](O)c3cc(F)cc(F)c3)cc2F)cnc1N	72
CC(C)NC(=O)c1cc(-c2ccc(NC(=O)[C@H](O)c3cc(F)cc(F)c3)cc2Cl)cnc1N	23
CCc1cc(NC(=O)[C@H](O)c2cc(F)cc(F)c2)ccc1-c1cnc(N)c(C(=O)NC(C)C)c1	9
COc1cc(NC(=O)[C@H](O)c2cc(F)cc(F)c2)ccc1-c1cnc(N)c(C(=O)NC(C)C)c1	366
Cc1cc(NC(=O)[C@H](O)c2cc(F)cc(F)c2)ccc1-c1cnc(N)c(C(=O)NC(C)C)n1	42
Cc1cc(NC(=O)[C@H](O)c2cc(F)cc(F)c2)ccc1-c1cc(C(=O)NC(C)C)c(N)nn1	7650
Cc1cc(NC(=O)[C@H](O)c2cc(F)cc(F)c2)ccc1-c1cncc(C(=O)NC(C)C)c1	181
Cc1cc(NC(=O)[C@H](O)c2cc(F)cc(F)c2)ccc1-c1cnc(C)c(C(=O)NC(C)C)c1	638
CNc1ncc(-c2ccc(NC(=O)[C@H](O)c3cc(F)cc(F)c3)cc2C)cc1C(=O)NC(C)C	4030
Cc1cc(NC(=O)[C@H](O)c2cc(F)cc(F)c2)ccc1-c1ccc(N)nc1	> 10000
CNC(=O)c1nc(-c2ccc(NC(=O)[C@H](O)c3cc(F)cc(F)c3)cc2C)cnc1N	40
